SMILES strings stand for the structures.

The target in the experiment is T1, Androgen Receptor (AR) (Homo sapiens, UniProt P10275, T878A).
T1 construct: cell based immuno-fluorescence assay using the LNCaP prostate epithelial cell line; endogenous in cells; host or cells: LNCaP clone FGC (ATCC CRL-1740)
T1 sequence (P10275 1-920 T878A): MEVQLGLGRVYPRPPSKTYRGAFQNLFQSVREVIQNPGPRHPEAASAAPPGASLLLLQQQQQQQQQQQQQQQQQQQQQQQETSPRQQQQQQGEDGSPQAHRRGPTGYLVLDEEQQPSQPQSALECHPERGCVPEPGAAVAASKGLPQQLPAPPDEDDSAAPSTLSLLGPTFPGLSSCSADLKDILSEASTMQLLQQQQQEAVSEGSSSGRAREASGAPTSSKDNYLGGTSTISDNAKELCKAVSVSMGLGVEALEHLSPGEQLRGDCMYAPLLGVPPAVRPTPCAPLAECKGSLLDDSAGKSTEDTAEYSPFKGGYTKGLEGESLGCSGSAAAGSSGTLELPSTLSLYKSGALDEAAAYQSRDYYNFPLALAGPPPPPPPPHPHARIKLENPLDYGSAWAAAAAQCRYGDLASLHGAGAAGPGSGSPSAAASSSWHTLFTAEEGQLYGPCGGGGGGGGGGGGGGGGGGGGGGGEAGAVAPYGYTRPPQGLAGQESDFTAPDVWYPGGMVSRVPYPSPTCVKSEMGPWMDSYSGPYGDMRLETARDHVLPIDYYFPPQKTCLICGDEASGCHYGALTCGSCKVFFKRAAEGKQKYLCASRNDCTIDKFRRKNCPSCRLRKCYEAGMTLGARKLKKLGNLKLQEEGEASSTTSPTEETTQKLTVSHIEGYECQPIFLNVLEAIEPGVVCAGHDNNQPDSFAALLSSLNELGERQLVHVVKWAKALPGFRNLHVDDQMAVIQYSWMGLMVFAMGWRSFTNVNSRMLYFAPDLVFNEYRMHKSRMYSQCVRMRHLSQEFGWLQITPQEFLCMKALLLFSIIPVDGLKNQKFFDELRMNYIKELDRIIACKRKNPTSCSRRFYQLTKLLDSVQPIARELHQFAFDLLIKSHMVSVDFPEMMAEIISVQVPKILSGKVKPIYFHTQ
In words: LNCaP Androgen Receptor Down-regulation Cell Assay (immunofluorescence end point). It counts as cell-based. The settings on record: LNCaP prostate carcinoma cells, compound incubation 20-22 hours, 50% reduction of the AR signal; read-out: Androgen Receptor Down-regulation Assay (a) IC50/μM. The essentials:
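AR loss reported as IC50 from curve fits of fluorescence dose-response data, with AR immunostained and read by laser-scanning cytometry. Compound exposure was 20-22 h at 37° C in LNCaP cells grown in 5% charcoal-stripped FBS and plated overnight beforehand.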
Turning to `N#Cc1ccc(CN2CCN(c3ccc4nnc(C(F)F)n4n3)CC2)cc1` [Example 237], the DC50 was determined as 5.3 µM.

For `N#Cc1cccc(CN2CCN(c3ccc4nnc(C(F)F)n4n3)CC2)c1` [Example 238], the DC50 worked out at 5 µM.

Turning to `CC(F)(F)c1nnc2ccc(N3CCN(Cc4cccc(C#N)c4)CC3)nn12` [Example 242], the DC50 came out at 7.4 µM.

For `CC(F)(F)c1nnc2ccc(N3CCN(Cc4cccc(F)c4)CC3)nn12` [Example 243], the DC50 was 3.7 µM.

On to `CCC(F)(F)c1nnc2ccc(N3CCN(Cc4cccc(C#N)c4)CC3)nn12` [Example 246], for which the DC50 was 23 µM.

As to `FC(F)c1nnc2ccc(N3CCN(Cc4cccc(Cl)c4)CC3)nn12` [Example 248], the DC50 came to 1.7 µM.

Take `Fc1ccc(CN2CCN(c3ccc4nnc(C(F)F)n4n3)CC2)c(F)c1` [Example 249]: the DC50 was 6.3 µM.

For `Fc1ccc(CN2CCN(c3ccc4nnc(C(F)F)n4n3)CC2)cc1F` [Example 250], the DC50 worked out at 4.9 µM.

In the case of `Fc1cc(F)cc(CN2CCN(c3ccc4nnc(C(F)F)n4n3)CC2)c1` [Example 251], the DC50 came out at 9.3 µM.

`Fc1cccc(F)c1CN1CCN(c2ccc3nnc(C(F)F)n3n2)CC1` [Example 252]: the DC50 was 8.9 µM.

With `COc1ccc(CN2CCN(c3ccc4nnc(C(F)F)n4n3)CC2)c(F)c1` [Example 253], the DC50 was determined as 3.7 µM.

For the compound `FC(F)c1nnc2ccc(N3CCN(Cc4cccc(C(F)(F)F)c4)CC3)nn12` [Example 255], the DC50 stood at 1.8 µM.

`Fc1cccc(CN2CCN(c3ccc4nnc(C(F)F)n4n3)CC2)c1F` [Example 256]: the DC50 was 7.4 µM.

`COc1cc(CN2CCN(c3ccc4nnc(C(F)F)n4n3)CC2)ccc1F` [Example 257]: the DC50 came to 9 µM.

On to `COc1ccc(F)c(CN2CCN(c3ccc4nnc(C(F)F)n4n3)CC2)c1` [Example 258], for which the DC50 stood at 6.4 µM.

As to `Fc1ccc(F)c(CN2CCN(c3ccc4nnc(C(F)F)n4n3)CC2)c1` [Example 259], the DC50 was 4.8 µM.

For the compound `N#Cc1cc(CN2CCN(c3ccc4nnc(C(F)F)n4n3)CC2)ccc1F` [Example 260], the DC50 was 5.6 µM.

`COc1ccc(CN2CCN(c3ccc4nnc(C(F)F)n4n3)CC2)cc1F` [Example 261]: the DC50 came to 7.9 µM.

Regarding `N#Cc1ccc(CN2CCN(c3ccc4nnc(C(F)F)n4n3)CC2)c(F)c1` [Example 262], the DC50 was found to be 25 µM.

`FC(F)c1nnc2ccc(N3CCN(Cc4csc5ccccc45)CC3)nn12` [Example 264]: the DC50 worked out at 0.95 µM.

Turning to `FC(F)c1nnc2ccc(N3CCN(Cc4c[nH]c5ccccc45)CC3)nn12` [Example 265], the DC50 stood at 3.8 µM.

In the case of `FC(F)c1nnc2ccc(N3CCC(c4c[nH]c5ccccc45)CC3)nn12` [Example 266, 3-(difluoromethyl)-6-[4-(1H-indol-3-yl)piperidin-1-yl][1,2,4]triazolo[4,3-b]pyridazine], the DC50 is 0.63 µM.

With `COc1cccc(OC2CCN(c3ccc4nnc(C(F)F)n4n3)CC2)c1` [Example 267], the DC50 stood at 0.85 µM.

Regarding `Fc1cccc(OC2CCN(c3ccc4nnc(C(F)F)n4n3)CC2)c1` [Example 268], the DC50 worked out at 0.91 µM.

Turning to `C[C@H](c1ccc(F)cc1)N1CCN(c2ccc3nnc(C(F)F)n3n2)CC1` [Example 269, 3-(difluoromethyl)-6-[4-[(1R)-1-(4-fluorophenyl)ethyl]piperazin-1-yl][1,2,4]triazolo[4,3-b]pyridazine], the DC50 is 2 µM.

In the case of `CC(C)(c1ccc(F)cc1)N1CCN(c2ccc3nnc(C(F)F)n3n2)CC1` [Example 271, 3-(difluoromethyl)-6-[4-[1-(4-fluorophenyl)-1-methylethyl]piperazin-1-yl][1,2,4]triazolo[4,3-b]pyridazine], the DC50 turned out to be 1.8 µM.

Consider `Fc1cccc(CN2CC=C(c3ccc4nnc(C(F)(F)F)n4n3)CC2)c1` [Example 272, 6-[1-(3-fluorobenzyl)-1,2,3,6-tetrahydropyridin-4-yl]-3-(trifluoromethyl)-[1,2,4]triazolo[4,3-b]pyridazine], for which the DC50 came to 1.8 µM.

For the compound `Fc1ccc(-c2nc(N3CCN(c4ccc5nnc(C(F)(F)F)n5n4)CC3)no2)cc1` [Example 274], the DC50 is 6.1 µM.

Turning to `FC(F)(F)c1nnc2ccc(N3CCN(c4noc(-c5ccccc5)n4)CC3)nn12` [Example 275], the DC50 turned out to be 6 µM.

Consider `N#Cc1ccc(-c2nc(N3CCN(c4ccc5nnc(C(F)(F)F)n5n4)CC3)no2)cc1` [Example 277], for which the DC50 was 2 µM.

Take `N#Cc1ccc2[nH]cc(CN3CCN(c4ccc5nnc(C(F)(F)F)n5n4)CC3)c2c1` [Example 278]: the DC50 was 0.65 µM.

Consider `FC(F)(F)c1nnc2ccc(N3CCN(Cc4c[nH]c5ccc(Cl)cc45)CC3)nn12` [Example 280], for which the DC50 was determined as 0.78 µM.

On to `FC(F)(F)c1nnc2ccc(N3CCN(Cc4c[nH]c5ccc(Br)cc45)CC3)nn12` [Example 281], for which the DC50 came to 0.8 µM.

For `FC(F)(F)c1nnc2ccc(N3CCN(Cc4c[nH]c5cccc(Cl)c45)CC3)nn12` [Example 282], the DC50 is 2.4 µM.

For the compound `Fc1ccc2[nH]cc(CN3CCN(c4ccc5nnc(C(F)(F)F)n5n4)CC3)c2c1` [Example 283], the DC50 was found to be 0.78 µM.

Take `Fc1ccc2c(CN3CCN(c4ccc5nnc(C(F)(F)F)n5n4)CC3)c[nH]c2c1` [Example 284]: the DC50 amounted to 0.98 µM.

Turning to `FC(F)(F)c1nnc2ccc(N3CCN(Cc4n[nH]c5ccccc45)CC3)nn12` [Example 285, 6-[4-(1H-indazol-3-ylmethyl)piperazin-1-yl]-3-(trifluoromethyl)[1,2,4]triazolo[4,3-b]pyridazine], the DC50 amounted to 2.7 µM.

On to `N#Cc1ccc2[nH]cc(CN3CCN(c4ccc5nnc(C(F)F)n5n4)CC3)c2c1` [Example 286], for which the DC50 is 8.5 µM.

On to `FC(F)c1nnc2ccc(N3CCN(Cc4c[nH]c5ccc(Cl)cc45)CC3)nn12` [Example 287], for which the DC50 was found to be 2 µM.

With `FC(F)c1nnc2ccc(N3CCN(Cc4c[nH]c5ccc(Br)cc45)CC3)nn12` [Example 288], the DC50 came to 3.3 µM.

As to `FC(F)c1nnc2ccc(N3CCN(Cc4c[nH]c5cccc(Cl)c45)CC3)nn12` [Example 289], the DC50 turned out to be 2.7 µM.

On to `Fc1ccc2[nH]cc(CN3CCN(c4ccc5nnc(C(F)F)n5n4)CC3)c2c1` [Example 290], for which the DC50 is 5.8 µM.

For the compound `FC(F)c1nnc2ccc(N3CCN(Cc4c(Cl)[nH]c5ccccc45)CC3)nn12` [Example 291], the DC50 was > 9.7 µM.

As to `Fc1ccc2c(CN3CCN(c4ccc5nnc(C(F)F)n5n4)CC3)c[nH]c2c1` [Example 292], the DC50 stood at 7 µM.

In the case of `FC(F)(F)c1nnc2ccc(N3CCC(COC4CCOCC4)CC3)nn12` [Example 294, 6-[4-[(tetrahydro-2H-pyran-4-yloxy)methyl]piperidin-1-yl]-3-(trifluoromethyl)[1,2,4]triazolo[4,3-b]pyridazine], the DC50 amounted to 9.5 µM.

With `FC(F)(F)c1nnc2ccc(N3CCC(COCC4CC4)CC3)nn12` [Example 295], the DC50 amounted to 3.4 µM.

On to `COCCOCC1CCN(c2ccc3nnc(C(F)(F)F)n3n2)CC1` [Example 296], for which the DC50 was determined as 2.1 µM.

`CC(C)OCC1CCN(c2ccc3nnc(C(F)(F)F)n3n2)CC1` [Example 298]: the DC50 turned out to be 5.7 µM.

As to `FC(F)(F)c1nnc2ccc(N3CCC(c4noc(-c5cccc(Cl)c5)n4)CC3)nn12` [Example 299], the DC50 came to 0.84 µM.

With `Fc1ccc(-c2nc(C3CCN(c4ccc5nnc(C(F)(F)F)n5n4)CC3)no2)cc1` [Example 300], the DC50 turned out to be 1 µM.

In the case of `FC(F)(F)c1nnc2ccc(N3CCC(c4noc(-c5ccccc5)n4)CC3)nn12` [Example 301], the DC50 is 1.8 µM.

Turning to `Fc1cccc(-c2nc(C3CCN(c4ccc5nnc(C(F)(F)F)n5n4)CC3)no2)c1` [Example 302], the DC50 stood at 1.1 µM.

For the compound `N#Cc1cccc(-c2nc(C3CCN(c4ccc5nnc(C(F)(F)F)n5n4)CC3)no2)c1` [Example 303], the DC50 stood at 5.8 µM.

With `FC(F)(F)c1nnc2ccc(N3CCC(OCC4CC4)CC3)nn12` [Example 304, 6-[4-(cyclopropylmethoxy)piperidin-1-yl]-3-(trifluoromethyl)[1,2,4]triazolo[4,3-b]pyridazine], the DC50 turned out to be 1.8 µM.

As to `C[C@H](c1ccc(C#N)cc1)N1CCN(c2ccc3nnc(C(F)(F)F)n3n2)CC1` [Example 307, 4-[(1R)-1-[4-[3-(trifluoromethyl)[1,2,4]triazolo[4,3-b]pyridazin-6-yl]piperazin-1-yl]ethyl]benzonitrile], the DC50 came out at 3.4 µM.
